{
  "source": "patent US3997403A",
  "about": "“Antibiotic G-418 and the production thereof” (Schering Corporation, priority 1975, dated 1976)",
  "key": {"Streptococcus sp. 16245": {"tested_on": "Streptococcus sp. 16245", "experiment": "In Vitro Antibacterial Activity (Table V)", "type": "cell-based", "conditions": "Mueller-Hinton Broth pH 7.2 - 7.5", "description": "(§1) In Table IV and Table V are set forth the in vitro antibacterial spectrum of Antibiotic G-418 against a variety of gram-positive and gram-negative bacteria using standard art recognized methods.\n(§2) *Mueller -- Hinton Broth pH 7.2 - 7.5"}, "Streptococcus sp. 27": {"tested_on": "Streptococcus sp. 27", "experiment": "In Vitro Antibacterial Activity (Table V)", "type": "cell-based", "conditions": "Mueller-Hinton Broth pH 7.2 - 7.5", "description": "as §1, §2"}, "Streptococcus sp. 3045": {"tested_on": "Streptococcus sp. 3045", "experiment": "In Vitro Antibacterial Activity (Table V)", "type": "cell-based", "conditions": "Mueller-Hinton Broth pH 7.2 - 7.5", "description": "as §1, §2"}, "Streptococcus sp. 30": {"tested_on": "Streptococcus sp. 30", "experiment": "In Vitro Antibacterial Activity (Table V)", "type": "cell-based", "conditions": "Mueller-Hinton Broth pH 7.2 - 7.5", "description": "as §1, §2"}, "Streptococcus sp. 6589": {"tested_on": "Streptococcus sp. 6589", "experiment": "In Vitro Antibacterial Activity (Table V)", "type": "cell-based", "conditions": "Mueller-Hinton Broth pH 7.2 - 7.5", "description": "as §1, §2"}, "Eschericia coli Sc.": {"tested_on": "Eschericia coli Sc.", "experiment": "In vivo protective activity in infected mice", "set-up": "species or system Carworth Farms CF-1 mice", "conditions": "S.C., dosed 1 hour after i.p. lethal infection, survival at 48 hours", "procedure": "(§3) In Table VI is set forth in vivo antibacterial data obtained with Antibiotic G-418. The host animals used to obtain the data were Carworth Farms CF-1 mice weighing about 18-20 g. In vivo protection (PD50) is determined by injecting the mice (in groups of seven) intraperitoneally with a lethal dose of pathogenic bacteria. The mice are dosed with Antibiotic G-418 1 hour later. The non-protected controls die in 18-24 hours whereas the survivors are alive 48 hours after infection when the test is terminated. The data is analyzed by standard probit procedures to determine PD50 values with 95% confidence limits."}, "[1]": {"tested_on": "Pseudomonas aeruginosa No. 1", "experiment": "In vivo protective activity in infected mice", "set-up": "species or system Carworth Farms CF-1 mice", "conditions": "S.C., dosed 1 hour after i.p. lethal infection, survival at 48 hours", "procedure": "as §3"}, "[2]": {"tested_on": "Staphylococcus aureus Gray", "experiment": "In vivo protective activity in infected mice", "set-up": "species or system Carworth Farms CF-1 mice", "conditions": "dosed 1 hour after i.p. lethal infection, survival at 48 hours", "procedure": "as §3"}, "[3]": {"tested_on": "Staphylococcus aureus St. M No. 1", "experiment": "In vivo protective activity in infected mice", "set-up": "species or system Carworth Farms CF-1 mice", "conditions": "S.C., dosed 1 hour after i.p. lethal infection, survival at 48 hours", "procedure": "as §3"}, "Acute Toxicity": {"experiment": "Acute Toxicity", "set-up": "species or system Carworth Farms CF-1 mice", "conditions": "mouse, in vivo, iv, I.V."}, "E. Histolytica": {"tested_on": "E. Histolytica", "experiment": "Oral activity against experimental cecal E. Histolytica infections in rats", "type": "in vivo, male Royal Hart rats", "conditions": "for A.D.I. (average degree of infection): scale 0 to 4, controls averaged 2.2", "description": "Table VII and Table VIII set forth in vivo test results which illustrate the antiprotozoal activity of Antibiotic G-418. The host for the tests were recently weaned male Royal Hart rats (3-4 weeks old) weighing about 50-70 g. The test procedure is a modification of one described by R. J. Schnitzer on pages 355-443 in Experimental Chemotherapy, Vol. 1, Academic Press, New York (1963).\n*A.D.I. -- defined as the average degree of infection based upon gross\nobservations of pathological changes in the cecum and microscopic\nobservations of the number of amoebae found. These observations are\nrecorded on a scale of from zero to four, zero representing a\nsubstantially normal cecum. Untreated but infected controls range from\nabout two to four. In the data set forth the controls averaged 2.2."}},
  "data": [
    {"smiles": "CN[C@@H]1[C@@H](O)[C@@H](O[C@@H]2[C@@H](O)[C@H](O[C@H]3O[C@H]([C@@H](C)O)[C@@H](O)[C@H](O)[C@H]3N)[C@@H](N)C[C@H]2N)OC[C@]1(C)O", "note": "[Antibiotic G-418]", "values": [
      {"measurement": "MIC", "setting": "Streptococcus sp. 16245", "value": 7.5, "unit": "µg/mL"},
      {"measurement": "MIC", "setting": "Streptococcus sp. 27", "value": 7.5, "unit": "µg/mL"},
      {"measurement": "MIC", "setting": "Streptococcus sp. 3045", "value": 7.5, "unit": "µg/mL"},
      {"measurement": "MIC", "setting": "Streptococcus sp. 30", "value": 7.5, "unit": "µg/mL"},
      {"measurement": "MIC", "setting": "Streptococcus sp. 6589", "value": 7.5, "unit": "µg/mL"},
      {"measurement": "PD50", "setting": "Eschericia coli Sc.", "value": 1.5, "unit": "mg/kg"},
      {"measurement": "PD50", "setting": "[1]", "value": 5.0, "unit": "mg/kg"},
      {"measurement": "PD50", "setting": "[2]; Oral", "value": 40, "unit": "mg/kg"},
      {"measurement": "PD50", "setting": "[2]; S.C.", "value": 2.5, "unit": "mg/kg"},
      {"measurement": "PD50", "setting": "[3]", "value": 3.0, "unit": "mg/kg"},
      {"measurement": "LD50", "setting": "Acute Toxicity", "value": 140, "unit": "mg/kg"},
      {"measurement": "Parasitological Cure Negative/Total", "setting": "E. Histolytica; oral 3.5 mg/kg/day, 3 days", "value": "0/7"},
      {"measurement": "A.D.I. (average degree of infection)", "setting": "E. Histolytica; oral 3.5 mg/kg/day, 3 days", "value": 1.7},
      {"measurement": "Parasitological Cure Negative/Total", "setting": "E. Histolytica; oral 3.5 mg/kg/day, 6 days", "value": "5/6"},
      {"measurement": "A.D.I. (average degree of infection)", "setting": "E. Histolytica; oral 3.5 mg/kg/day, 6 days", "value": 0.2},
      {"measurement": "Parasitological Cure Negative/Total", "setting": "E. Histolytica; oral 6.5 mg/kg/day, 1 day", "value": "2/5"},
      {"measurement": "A.D.I. (average degree of infection)", "setting": "E. Histolytica; oral 6.5 mg/kg/day, 1 day", "value": 1.0},
      {"measurement": "Parasitological Cure Negative/Total", "setting": "E. Histolytica; oral 6.5 mg/kg/day, 3 days", "value": "4/5"},
      {"measurement": "A.D.I. (average degree of infection)", "setting": "E. Histolytica; oral 6.5 mg/kg/day, 3 days", "value": 0.4},
      {"measurement": "Parasitological Cure Negative/Total", "setting": "E. Histolytica; oral 6.5 mg/kg/day, 6 days", "value": "4/4"},
      {"measurement": "A.D.I. (average degree of infection)", "setting": "E. Histolytica; oral 6.5 mg/kg/day, 6 days", "value": 0},
      {"measurement": "Parasitological Cure Negative/Total", "setting": "E. Histolytica; oral 10 mg/kg/day, 1 day", "value": "4/7"},
      {"measurement": "A.D.I. (average degree of infection)", "setting": "E. Histolytica; oral 10 mg/kg/day, 1 day", "value": 0.7},
      {"measurement": "Parasitological Cure Negative/Total", "setting": "E. Histolytica; oral 10 mg/kg/day, 3 days", "value": "7/7"},
      {"measurement": "A.D.I. (average degree of infection)", "setting": "E. Histolytica; oral 10 mg/kg/day, 3 days", "value": 0},
      {"measurement": "Parasitological Cure Negative/Total", "setting": "E. Histolytica; oral 12.5 mg/kg/day, 6 days", "value": "24/24"},
      {"measurement": "A.D.I. (average degree of infection)", "setting": "E. Histolytica; oral 12.5 mg/kg/day, 6 days", "value": 0},
      {"measurement": "Parasitological Cure Negative/Total", "setting": "E. Histolytica; oral 25 mg/kg/day, 6 days", "value": "19/19"},
      {"measurement": "A.D.I. (average degree of infection)", "setting": "E. Histolytica; oral 25 mg/kg/day, 6 days", "value": 0}
    ]}
  ]
}
